{"source": "paper PMC3822755", "about": "(Bioorganic & medicinal chemistry letters, 2013)", "key": {"[1]": {"tested_on": "VSV-GP (vesicular stomatitis virus particle bearing the EBOV GP)", "format": "cell-based"}, "[2]": {"tested_on": "VSV-G (VSV bearing its native envelope glycoprotein G)", "format": "cell-based, vesicular stomatitis virus; Vero host cells"}}}
{"compound": "KKKKGSGC(Chol) ^b [Peptide 3-Chol]", "values": [{"measurement": "activity against VSV-GP entry (in words)", "setting": "[1]", "result": "active"}, {"measurement": "inhibition of VSV-GP entry", "setting": "[1]", "result": "> 90", "unit": "%"}, {"measurement": "potency against VSV-GP compared with 1-Chol and 2-Chol", "setting": "[1]; 20 µM", "result": "much less potent"}, {"measurement": "activity against VSV-G (in words)", "setting": "[2]", "result": "active"}]}
{"compound": "CC(C)CCC[C@@H](C)[C@H]1CC[C@H]2[C@@H]3CC=C4C[C@@H](O)CC[C@]4(C)[C@H]3CC[C@]12C", "note": "[cholesterol, reference compound]", "values": [{"measurement": "activity against VSV-GP entry (in words)", "setting": "[1]", "result": "relatively modest effects"}]}
